Here are results for three compounds from patent publication US20120245176A1, “NOVEL […] WITH S[…] AS BROAD-[…] INFLUENZA ANTIVIRALS” (priority 2010, published 2012).

Data set [1] relates to A/H1N1/WSN. In words: Antiviral assay in MDCK cells, viral neuraminidase (MUNANA) readout, A/H1N1/WSN. Format: cell-based, influenza A. The following applies: MOI 0.001, 48 hrs post infection, viral NA activity.
Data set [2] concerns A/H1N1/Solomon Islands. As to the kind of experiment: Antiviral assay in MDCK cells, viral neuraminidase (MUNANA) readout, A/H1N1/Solomon Islands. Format: cell-based, influenza A. The following applies: MOI 0.001, 48 hrs post infection, viral NA activity.
Data set [3] relates to A/H3N2 Brisbane. As to the kind of experiment: Antiviral assay in MDCK cells, viral neuraminidase (MUNANA) readout, A/H3N2 Brisbane. The format is cell-based, influenza A. The following applies: MOI 0.001, 48 hrs post infection, viral NA activity.
Data set [4] concerns A/H5N1/Duck_MN. As to the kind of experiment: microbe, parasite or virus in culture. The format is cell-based, influenza virus. The following applies: read-out: A/H5N1/Duck_MN EC50.
Data set [5] deals with A/H5N1/Duck_PA. As to the kind of experiment: microbe, parasite or virus in culture. Format: cell-based, influenza virus. The settings on record: read-out: A/H5N1/Duck_PA EC50.
Data set [6] concerns A/H5N1/Gull_PA. As to the kind of experiment: microbe, parasite or virus in culture. Format: cell-based, influenza virus. The following applies: read-out: A/H5N1/Gull_PA EC50.
Data set [7] in a line: Human Liver Microsomal Stability. The following applies: human liver microsomes. In general terms: Liver microsomes are a subcellular fraction often used to study metabolism.
A short description of data set [8]: Mouse Liver Microsomal Stability. The following applies: mouse liver microsomes.

Take `COc1ccccc1-c1nnn(C)c1C(=O)N1CCN(c2ccc([N+](=O)[O-])cc2Cl)CC1` [Example 81]: the EC50 in data set [1] was under 0.1 µM; in data set [2], under 10 µM; in data set [3], over 10 µM; in data set [4] it was under 1 µM; in data set [5] it was under 1 µM; in data set [6] it was under 0.1 µM. The “Human Liver Microsomal Stability (% Remaining after 10 minutes)” value in data set [7] came to 73%. Moreover, in data set [8], the “Mouse Liver Microsomal Stability (% Remaining after 10 minutes)” value was 45%.

With `COc1ccccc1-c1ncn(C)c1C(=O)N1CCN(c2ccc([N+](=O)[O-])cc2Cl)CC1` [Example 82], the EC50 in data set [1] is under 1 µM; in data set [2], over 10 µM; in data set [3], over 10 µM; in data set [4], under 10 µM; in data set [5], under 10 µM; in data set [6], under 1 µM. Besides, in data set [7], the “Human Liver Microsomal Stability (% Remaining after 10 minutes)” value was found to be 45%. The “Mouse Liver Microsomal Stability (% Remaining after 10 minutes)” value in data set [8] came out at 43%.

With `Cc1nnn(-c2ccccc2Cl)c1C(=O)N1CCN(c2ccc([N+](=O)[O-])cc2Cl)CC1` [Example 88], the EC50 was under 1 µM in data set [1]; under 10 µM in data set [2]; over 10 µM in data set [3]; under 10 µM in data set [4]; under 10 µM in data set [5]; under 1 µM in data set [6]. In addition, the “Human Liver Microsomal Stability (% Remaining after 10 minutes)” value in data set [7] worked out at 47%. For the same compound, the “Mouse Liver Microsomal Stability (% Remaining after 10 minutes)” value in data set [8] is listed as 23%.
